In patent US10220021B2, “Methods for treating and preventing ocular diseases, disorders, and conditions with melanin and melanin analogs, precursors, and derivatives” (priority 2014, dated 2019):
Like-named read-outs stand apart in the source and are kept apart here.

Tests used:
hyphema in rabbits = settings: rabbit, in vivo; cited from earlier work
eyes of healthy rats = settings: rat, in vivo
Experimental: The effect of subconjunctival injection of melanin into the eyes of healthy rats was tested. Rats were put under general anesthesia by intraperitoneal injection of barbiturates. A total of five rats were used in the study. Then, 500 μL of a 3% aqueous melanin solution was administered to the right eye of each of the rats by subconjunctival injection. The left eye was left untreated.

[1] = system: leukoplakia and hyperemia of the eye; experiment: Topical treatment of leukoplakia and hyperemia of the eye in a patient; type: in vivo, human; settings: topical cortisone drops, two months, right eye
Excerpt: The leukoplakia was hypothesized to be the result of excessive sun exposure and chemicals. The patient was initially treated with topical cortisone drops, and the cortisone treatment continued for two months.
One month subsequent to stopping cortisone treatment, the patient underwent treatment with a 3% aqueous solution of melanin (w/v) that was topically applied in the form of eye drops. The aqueous solution was produced by mixing water and chemically synthesized melanin (synthetic melanin). […] Three to four drops (about 50 μL per drop) of the 3% aqueous melanin solution were administered for each application, and the solution was applied four times per day at approximately six hour intervals. […] The same dosing regimen was used over the entire course of the treatment.

[2] = system: cornea of the right eye of a Wistar rat; settings: cited from earlier work; for Observation in Treated Eye: Angiogenesis / Observation in Treated Eye: Corneal Keratoconus / Observation in Treated Eye: No Change: 10 μL topically once, 5 rats treated, one week

melanin
incidence of rebleeds (hyphema in rabbits): increase
appearance of treated eyes immediately after injection (eyes of healthy rats): increase in size and some distortion
visible marks on the ocular tissue at the injection site (eyes of healthy rats): no visible marks
visible signs of inflammation, irritation, or subconjunctival bleeding (eyes of healthy rats): nor were any visible signs of inflammation, irritation, or subconjunctival bleeding observed

C[C@]12CCC(=O)C=C1CC[C@@H]1[C@@H]2C(=O)C[C@@]2(C)[C@H]1CC[C@]2(O)C(=O)CO [cortisone]
improvement of leukoplakia and hyperemia [1]: no improvement

Oc1ccccc1 [Phenol, phenol]
formation of new blood vessels in the cornea ([2]; all concentrations of phenol tested (0.1 M to 8.5 M), at least one rat in each group, one week after application): new blood vessels began to form in the cornea
changes associated with corneal ectasia, particularly corneal keratoconus ([2]; higher concentrations of phenol (e.g., 3.0 M, 5.6 M, and 8.5 M)): observed in some of the rats
Observation in Treated Eye: Angiogenesis ([2]; phenol 0.1M): 1 Number of Rats
Observation in Treated Eye: Corneal Keratoconus ([2]; phenol 0.1M): 0 Number of Rats
Observation in Treated Eye: No Change ([2]; phenol 0.1M): 4 Number of Rats
Observation in Treated Eye: Angiogenesis ([2]; phenol 0.5M): 1 Number of Rats
Observation in Treated Eye: Corneal Keratoconus ([2]; phenol 0.5M): 0 Number of Rats
Observation in Treated Eye: No Change ([2]; phenol 0.5M): 4 Number of Rats
Observation in Treated Eye: Angiogenesis ([2]; phenol 1.0M): 3 Number of Rats
Observation in Treated Eye: Corneal Keratoconus ([2]; phenol 1.0M): 0 Number of Rats
Observation in Treated Eye: No Change ([2]; phenol 1.0M): 2 Number of Rats
Observation in Treated Eye: Angiogenesis ([2]; phenol 3.0M): 4 Number of Rats
Observation in Treated Eye: Corneal Keratoconus ([2]; phenol 3.0M): 2 Number of Rats
Observation in Treated Eye: No Change ([2]; phenol 3.0M): 1 Number of Rats
Observation in Treated Eye: Angiogenesis ([2]; phenol 6.5M): 4 Number of Rats
Observation in Treated Eye: Corneal Keratoconus ([2]; phenol 6.5M): 2 Number of Rats
Observation in Treated Eye: No Change ([2]; phenol 6.5M): 1 Number of Rats
Observation in Treated Eye: Angiogenesis ([2]; phenol 8.5M): 3 Number of Rats
Observation in Treated Eye: Corneal Keratoconus ([2]; phenol 8.5M): 1 Number of Rats
Observation in Treated Eye: No Change ([2]; phenol 8.5M): 2 Number of Rats
